The test system of this experiment is BMSC (primary human bone marrow mesenchymal stromal cells). In words: drug sensitivity score (DSS); higher = more sensitive.
Molecule `CCn1cc(-c2ccnc3[nH]c(-c4cccc(CN(C)C)c4)cc23)c(-c2ccc(NC(=O)N(C)C)cc2)n1` yielded a drug sensitivity score of 1.5. In the case of `Cn1cc(-c2cnn3c(N)c(Br)c([C@@H]4CCCNC4)nc23)cn1` [MK-8776] it was 1; in that of `CN(c1ncccc1CNc1nc(Nc2ccc3c(c2)CC(=O)N3)ncc1C(F)(F)F)S(C)(=O)=O`, 3.2.

Molecule `CN[C@@H](C)C(=O)N[C@H](C(=O)N1CCC[C@H]1c1nc(C(=O)c2ccc(F)cc2)cs1)C1CCCCC1` [NVP-LCL161] had a drug sensitivity score of 0. `CC(C)[C@H]1C(=O)N[C@@H](CCCNC(=N)N)C(=O)NCC(=O)N[C@@H](CC(=O)O)C(=O)N[C@H](Cc2ccccc2)C(=O)N1C` [Cilengitide]: the drug sensitivity score is 1.4. In the case of `O=C(Nc1ccc(OC(F)(F)Cl)cc1)c1cnc(N2CC[C@@H](O)C2)c(-c2cc[nH]n2)c1` [Asciminib] it was 0; in that of `Cn1ncc(Cl)c1-c1cc(C(=O)N[C@H](CN)Cc2ccc(F)c(F)c2)oc1Cl` [Uprosertib], 2.4; in that of `COc1ccc(S(=O)(=O)Nc2cccnc2Nc2ccc(O)cc2)cc1` [ABT-751], 5.5.

The molecule `O=c1sn(-c2cccc3ccccc23)c(=O)n1Cc1ccccc1` [Tideglusib] registered a drug sensitivity score of 0. Turning to `Nc1cc(C(F)(F)F)c(-c2cc(N3CCOCC3)nc(N3CCOCC3)n2)cn1` [Buparlisib], the drug sensitivity score came to 7.8. In the case of `C[C@@H](NC(=O)c1ncnc(N)c1Cl)c1ncc(C(=O)Nc2cc(C(F)(F)F)c(Cl)cn2)s1` [TAK-580] it was 5.7; in that of `S=C(NCc1ccc2c(c1)OCO2)N1CCN(c2ncnc3c2oc2ccccc23)CC1` [Amuvatinib], 0. `Cc1ccc(C(=O)N(CCCN)[C@@H](c2oc3cc(Cl)ccc3c(=O)c2Cc2ccccc2)C(C)C)cc1`: the drug sensitivity score is 0. In the case of `CCNC(=O)CCC/C=C\C[C@@H]1[C@@H](/C=C/[C@@H](O)CCc2ccccc2)[C@H](O)C[C@@H]1O` [Bimatoprost] it was -0.9; in that of `Cc1sc2c(c1C)C(c1ccc(Cl)cc1)=N[C@@H](CC(=O)Nc1ccc(O)cc1)c1nnc(C)n1-2` [Birabresib], 4.9. In the case of `CCc1nc(C(N)=O)c(Nc2ccc(N3CCC(N4CCN(C)CC4)CC3)c(OC)c2)nc1NC1CCOCC1` [Gilteritinib] it was 0.8; in that of `O=C(O)C1(C(=O)O)CCC1.[NH2-].[NH2-].[Pt+2]` [Carboplatin], 2.5; in that of `N#CC(c1ccnc(OCc2ccc(CN3CCOCC3)cc2)n1)c1nc2ccccc2s1` (stereo unspecified) [Bentamapimod], 0.

`CC(=O)c1c(C)c2cnc(Nc3ccc(N4CCNCC4)cn3)nc2n(C2CCCC2)c1=O` [Palbociclib] gave a drug sensitivity score of 2.3. In the case of `CC(=O)Nc1cccc(-n2c(=O)n(C3CC3)c(=O)c3c(Nc4ccc(I)cc4F)n(C)c(=O)c(C)c32)c1` [Trametinib] it was 2.7. For `Cc1cc(-c2nc(-c3ccc(OC(F)(F)F)cc3)no2)nn1Cc1ccnc(N2CCN(C3CC3)CC2)c1` [BAY 87-2243], the drug sensitivity score was 0. As for `Cc1noc2c1-c1ccccc1C(c1ccc(Cl)cc1)=N[C@H]2CC(N)=O` [CPI-0610], the drug sensitivity score worked out at 0. To `COc1cc(C)c(/C=C/C(C)=C/C=C/C(C)=C/C(=O)O)c(C)c1C` [Acitretin] belongs 0; to `C=CC(=O)Nc1cc(Nc2nccc(-c3cn(C)c4ccccc34)n2)c(OC)cc1N(C)CCN(C)C` [Osimertinib], 1.5. To `CC(=O)OC[C@H]1O[C@@H]([S-])[C@H](OC(C)=O)[C@@H](OC(C)=O)[C@@H]1OC(C)=O.CCP(CC)CC.[Au+]` [Auranofin] belongs 3.3; to `Cc1nc(NC(=O)N2CCC[C@H]2C(N)=O)sc1-c1ccnc(C(C)(C)C(F)(F)F)c1` [Alpelisib], 3.4; to `CC[C@@H]1C(=O)N(C)c2cnc(Nc3ccc(C(=O)NC4CCN(C)CC4)cc3OC)nc2N1C1CCCC1` [BI 2536], 1.9. To `COc1cc2c(Nc3ccc(Cl)c(Cl)c3F)ncnc2cc1OC[C@@H]1C[C@@H]2CN(C)C[C@@H]2C1` [Tesevatinib] belongs 4.1; to `Cc1sc2c(c1C)C(c1ccc(Cl)cc1)=N[C@@H](CC(=O)Nc1ccc(OCCOCCOCCOCCNc3cccc4c3C(=O)N(C3CCC(=O)NC3=O)C4=O)cc1)c1nnc(C)n1-2` (stereo partly specified) [ARV-825], 10.1; to `Clc1ccc(Nc2nnc(Cc3ccncc3)c3ccccc23)cc1` [Vatalanib], 0. Regarding `CC(=O)[C@]1(O)Cc2c(O)c3c(c(O)c2[C@@H](O[C@H]2C[C@H](N)[C@H](O)[C@H](C)O2)C1)C(=O)c1ccccc1C3=O` [Idarubicin], the drug sensitivity score was determined as 6.6.

`Cc1ccccc1CN1C(=O)C2=C(CCN(Cc3ccccc3)C2)N2CCN=C12` [TIC10] displayed a drug sensitivity score of 3.8.

`FC(F)c1nc2ccccc2n1-c1nc(N2CCOCC2)nc(N2CCOCC2)n1` [ZSTK474] showed a drug sensitivity score of 7.2. `C=CC(=O)Nc1cccc(Nc2nc(Nc3ccc(N4CCN(C(C)=O)CC4)cc3OC)ncc2C(F)(F)F)c1` [Rociletinib] returned a drug sensitivity score of 5.8. In the case of `CN1CCc2c(c3ccccc3n2Cc2ccc(C(=O)NO)cc2)C1` [Tubastatin A] it was 0; in that of `CNC(=O)c1ccc2cc([C@@]3(O)CCn4cncc43)ccc2c1` [Orteronel], 0; in that of `CCN(CC)CCNC(=O)c1c(C)[nH]c(/C=C2\C(=O)Nc3ccc(F)cc32)c1C` [Sunitinib], 5.6.

Molecule `Cc1cccc(-c2[nH]c(CNc3ccccc3F)nc2-c2ccc3ncnn3c2)n1` [TEW-7197] had a drug sensitivity score of 2.1.

In turn, `COc1c(OCCCN2CCOCC2)ccc2c3n(c(=NC(=O)c4cnc(N)nc4)nc12)CCN3` [Copanlisib] showed a drug sensitivity score of 13. As to `CC1(COc2ccc3c(c2)ncn3-c2ccc3cccc(N4CCC(N)CC4)c3n2)COC1` [Crenolanib], the drug sensitivity score was 8.5.

Consider `COC(=O)c1ccc2c(C(=Nc3ccc(N(C)C(=O)CN4CCN(C)CC4)cc3)c3ccccc3)c(O)[nH]c2c1` [Nintedanib], for which the drug sensitivity score was 9.7. To `Cc1c(C(=O)Nc2ccc(N3C[C@@H](C)O[C@@H](C)C3)nc2)cccc1-c1ccc(OC(F)(F)F)cc1` [Sonidegib] belongs 0; to `CCc1cncnc1N1CCN(Cc2nc3ccc(C(F)(F)F)cc3[nH]2)CC1`, 1.

`CN1CCN(c2nc(C3=C(c4c[nH]c5ccccc45)C(=O)NC3=O)c3ccccc3n2)CC1` [Sotrastaurin] yielded a drug sensitivity score of 2.8. Take `Nc1nccc(-c2c(-c3ccc(F)cc3)ncn2C2CCCCC2)n1`: the drug sensitivity score was 0.3. To `C[C@H]1C[C@@H]2[C@H]([C@@H](O)C[C@@]3(C)[C@H]2CC[C@]3(O)C(=O)CO)[C@@]2(C)C=CC(=O)C=C12` [Methylprednisolone] belongs 0; to `CCN1C(=O)CNc2ncc(-c3ccc(-c4nc[nH]n4)nc3C)nc21` [CC-115], 6.9. Take `Cc1c(-c2ccc(N3CCc4cccc(C(=O)Nc5nc6ccccc6s5)c4C3)nc2C(=O)O)cnn1CC12CC3CC(CC(C3)C1)C2`: the drug sensitivity score was 0. In the case of `CC(C)(O)CNc1nc(Nc2ccnc(C(F)(F)F)c2)nc(-c2cccc(C(F)(F)F)n2)n1` [Enasidenib] it was 0; in that of `CNC(=O)c1ccccc1Nc1cc(Nc2ccc(N3CCOCC3)cc2OC)ncc1C(F)(F)F` [VS-4718], 5.6. In the case of `CNC(=O)c1ccc(N2C(=S)N(c3ccc(C#N)c(C(F)(F)F)c3)C(=O)C2(C)C)cc1F` [Enzalutamide] it was 0.

For the origin of these results see the supplement of paper PMC9103864.
